Tests used:
Experiment in all cases: relative viability (nuclei count vs DMSO), 5 days (fraction); higher = more cells survive
[1] = tested on: PC-3 [JPC-3]
Summary of the method: (§1)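 Lung cancer cell lines in 1536-well plates were dosed by pin tool the day after seeding, either with one drug alone or with a fixed anchor-drug dose plus five library-drug doses (not always all listed) in √10 steps. After 5 days, cells were fixed and their nuclei stained in one step (final 0.05% Triton X-100, 1% formaldehyde, 1 ug/ml Hoechst), then counted on 4× images. Relative viability is the nuclei count in treated wells divided by that in vehicle wells. Values are medians of duplicate plates.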

[2] = tested on: A-427
Summary of the method: as §1

[3] = tested on: NCI-H596
Summary of the method: as §1

[4] = tested on: NCI-H1993
Summary of the method: as §1

[5] = tested on: HOP-62
Summary of the method: as §1

[6] = tested on: EMC-BAC-2
Summary of the method: as §1

[7] = tested on: SW 1573
Summary of the method: as §1

[8] = tested on: NCI-H3122
Summary of the method: as §1

[9] = tested on: NCI-H727
Summary of the method: as §1

[10] = tested on: ABC-1
Summary of the method: as §1

[11] = tested on: NCI-H2228
Summary of the method: as §1

[12] = tested on: NCI-H2009
Summary of the method: as §1

[13] = tested on: HARA
Summary of the method: as §1

[14] = tested on: NCI-H1792
Summary of the method: as §1

[15] = tested on: NCI-H322M
Summary of the method: as §1

[16] = tested on: LXF-289
Summary of the method: as §1

SMILES: O=c1cc(-c2cccc3c2Sc2ccccc2S3)oc(N2CCOCC2)c1 + CC(C)C[C@H](NC(=O)[C@H](Cc1ccccc1)NC(=O)c1cnccn1)B(O)O [Bortezomib] (partner 0.002 µM)
- relative viability ([1]; first compound 0.08 µM): 0.875
- relative viability ([1]; first compound 0.253 µM): 0.801
- relative viability ([1]; first compound 0.8 µM): 0.886
- relative viability ([1]; first compound 2.53 µM): 0.818
- relative viability ([1]; first compound 8 µM): 1.12
- relative viability ([2]; first compound 0.08 µM): 1.09
- relative viability ([2]; first compound 0.253 µM): 0.977
- relative viability ([2]; first compound 0.8 µM): 0.999
- relative viability ([2]; first compound 2.53 µM): 0.931
- relative viability ([2]; first compound 8 µM): 1.03
- relative viability ([3]; first compound 0.08 µM): 0.985
- relative viability ([3]; first compound 0.253 µM): 1.18
- relative viability ([3]; first compound 0.8 µM): 0.959
- relative viability ([3]; first compound 2.53 µM): 0.745
- relative viability ([3]; first compound 8 µM): 1.14
- relative viability ([4]; first compound 0.08 µM): 1.12
- relative viability ([4]; first compound 0.253 µM): 1.21
- relative viability ([4]; first compound 0.8 µM): 0.972
- relative viability ([4]; first compound 2.53 µM): 1.04
- relative viability ([4]; first compound 8 µM): 1.2
- relative viability ([5]; first compound 0.08 µM): 0.734
- relative viability ([5]; first compound 0.253 µM): 1.27
- relative viability ([5]; first compound 0.8 µM): 0.735
- relative viability ([5]; first compound 2.53 µM): 0.713
- relative viability ([5]; first compound 8 µM): 1.08
- relative viability ([6]; first compound 0.08 µM): 1.03
- relative viability ([6]; first compound 0.253 µM): 1.18
- relative viability ([6]; first compound 0.8 µM): 1.1
- relative viability ([6]; first compound 2.53 µM): 1.03
- relative viability ([6]; first compound 8 µM): 1.1
- relative viability ([7]; first compound 0.08 µM): 0.976
- relative viability ([7]; first compound 0.253 µM): 1.13
- relative viability ([7]; first compound 0.8 µM): 1.09
- relative viability ([7]; first compound 2.53 µM): 1.05
- relative viability ([7]; first compound 8 µM): 1.09
- relative viability ([8]; first compound 0.08 µM): 1.05
- relative viability ([8]; first compound 0.253 µM): 1.15
- relative viability ([8]; first compound 0.8 µM): 1.08
- relative viability ([8]; first compound 2.53 µM): 1
- relative viability ([8]; first compound 8 µM): 1.12
- relative viability ([9]; first compound 0.253 µM): 1.1
- relative viability ([9]; first compound 2.53 µM): 0.66
- relative viability ([9]; first compound 8 µM): 0.972
- relative viability ([10]; first compound 0.08 µM): 0.364
- relative viability ([10]; first compound 0.253 µM): 0.312
- relative viability ([10]; first compound 0.8 µM): 0.249
- relative viability ([10]; first compound 2.53 µM): 0.333
- relative viability ([10]; first compound 8 µM): 0.323
- relative viability ([11]; first compound 0.08 µM): 0.965
- relative viability ([11]; first compound 0.253 µM): 1.16
- relative viability ([11]; first compound 0.8 µM): 1.19
- relative viability ([11]; first compound 2.53 µM): 0.982
- relative viability ([11]; first compound 8 µM): 1.23
- relative viability ([12]; first compound 0.08 µM): 0.936
- relative viability ([12]; first compound 0.253 µM): 1.1
- relative viability ([12]; first compound 0.8 µM): 0.952
- relative viability ([12]; first compound 2.53 µM): 0.871
- relative viability ([12]; first compound 8 µM): 0.795
- relative viability ([13]; first compound 0.08 µM): 1.09
- relative viability ([13]; first compound 0.253 µM): 1.37
- relative viability ([13]; first compound 0.8 µM): 0.926
- relative viability ([13]; first compound 2.53 µM): 0.921
- relative viability ([13]; first compound 8 µM): 1.24
- relative viability ([14]; first compound 0.253 µM): 1.4
- relative viability ([14]; first compound 0.8 µM): 1.05
- relative viability ([14]; first compound 2.53 µM): 0.904
- relative viability ([14]; first compound 8 µM): 1.27
- relative viability ([15]; first compound 0.08 µM): 1.21
- relative viability ([15]; first compound 0.253 µM): 1.21
- relative viability ([15]; first compound 0.8 µM): 1.2
- relative viability ([15]; first compound 2.53 µM): 1.04
- relative viability ([15]; first compound 8 µM): 1.17
- relative viability ([16]; first compound 0.08 µM): 0.994
- relative viability ([16]; first compound 0.253 µM): 0.976
- relative viability ([16]; first compound 0.8 µM): 1.08
- relative viability ([16]; first compound 2.53 µM): 0.988
- relative viability ([16]; first compound 8 µM): 1.03
